Consider one compound from patent publication JP2011032172A, “酸化ストレス低減剤。” (Mitsubishi Gas Chemical Co Inc, priority 2009, dated 2011).

The subject of assay [1] is 8−OHdG. Nature of the assay: urinary 8-OHdG production rate in placebo-controlled double-blind parallel-group human trial (ELISA). Format: in vivo. As to conditions: healthy adult men and women 45-65 years; PQQ disodium salt 20 mg hard capsule after breakfast daily, 3 months; early-morning urine before and at 4, 8, 12 weeks; result in words (rate calculated in ng/kg/hr).

The subject of assay [2] is hexanoyl-lysine (ヘキサノイルリジン(HEL)). Nature of the assay: urinary hexanoyl-lysine (HEL) production rate in the same human trial (ELISA). Format: in vivo. Conditions: healthy adult men and women 45-65 years; PQQ disodium salt 20 mg hard capsule after breakfast daily, 3 months; urine from same two groups as Example 1; result in words (rate calculated in pmol/kg/hr).

`O=C(O)c1cc(C(=O)O)c2c(n1)C(=O)C(=O)c1cc(C(=O)O)[nH]c1-2` [PQQ, ピロロキノリンキノン, 二ナトリウム塩]: the “8−OHdG production rate” value in assay [1] is listed as “低下傾向”. Besides, in assay [2], the HEL production rate entry is “低下傾向”.
